Experimental data as given in US20240074473A1, “METHOD FOR INDUCING HYPERTROPHIC MUSCLE FIBERS FOR INDUSTRIAL MEAT PRODUCTION” (Yeda Research and Development Co. Ltd., priority 2021, published 2024).
Read-outs that look alike come from different tables or passages of the source.

Columns and labels:
[1] = Risk categorization of cell culture media ingredients
Source text: Category 1: These cell culture media components are food ingredients/additives that are GRAS or permitted by federal regulation without limitation on use. Exemplary compounds in this category include innocuous ingredients such as sugars, pH buffers, water soluble vitamins, and common antioxidants such as tocopherols.
Category 2: These cell culture media components are common dietary nutrients and are anticipated to have GRAS status for food use or be permitted by regulation for addition to food. Examples of such compounds include most of the inorganic salts and macronutrients that are present within the cell culture media. […] Majority of nutrients present within the poultry cell-based meat may be readily measured using common validated methods for food composition testing. Batch analyses of multiple lots of the finished product may be obtained to validate the above assumptions. In some instances, consideration of established safe levels (e.g., ADI, UL) derived from a relevant authoritative body (e.g., U.S. FDA, EFSA, JECFA, FSANZ, U.S. EPA) may be leveraged to support safety. If comparisons of anticipated dietary intakes relative to an authoritative reference intake value is used, consideration of additive intakes from all dietary sources may be considered. In the absence of an authoritative reference intake value, published NOAELs from animal toxicology studies may be used to evaluate safety using standard scientific procedures for food safety evaluation. A margin of exposure (MoE) of 100-fold or greater between the NOAEL and estimated dietary intakes from food exposures is typically considered adequate to support safety. in situations where the MoE is <100-fold, additional measures for further reduction of the media component may be necessary, or further characterization of intraspecies/interspecies differences in metabolism may be necessary. These situations also require careful consideration of the regulatory status on a case-by basis (e.g., premarket approval as a food additive or GRAS evaluation required).
For example, situations where the compound is not detectable in finished product or is present at equivalent levels in comparator foods, compounds that are thermo-labile and will be digested during cooking, and/or compounds that are expected to be digested to innocuous compounds following ingestion. Examples of compounds meeting the aforementioned conditions would include recombinant growth factors and serum components. For Category 3 substances a final consideration in the safety assessment process may involve hazard characterization of the potential for a substance to produce toxic biological effects outside of the endpoints measured in a sub-chronic rat toxicity study. Substances with biological activity may require additional hazard characterization related to reproductive and developmental toxicity, or immunotoxicity. Considerations for allergenicity, biological effects in humans (e.g., effects on blood pressure), and synergistic effects with other media components also may be evaluated. […] Examples of category 3 components include recombinant proteins and animal serum.

[2] = human dietary intake, cited from earlier work
[3] = Maximum estimated dietary exposure to media ingredients per 100 g serving; settings: assumption of complete transfer of media components to the finished product on a wt/wt basis
[4] = test system: primary mouse myoblasts; assay: Fusion index of primary mouse myoblasts (MyHC immunostaining); type: cell-based; settings: co-treatment with ERKi and 20 uM HX531, 24 hours
Procedure: (§1) Isolation of and treatment of primary myoblasts. Primary mouse myoblasts were isolated from gastrocnemius muscle using trypsin-tissue dissociation. Briefly, muscle tissues were incubated in Trypsin B (0.25%, Biological Industries) and subjected to mechanical dissociation with a serological pipet. Supernatants were strained and centrifuged. Pellets were grown resuspended in BioAmf-2 media (Biological Industries, Israel) and plated on 10% Matrigel (BD Biosciences)-coated plates at 37° and 5% CO2. For all in vitro experiments, proliferation medium was Bio-Amf2 (Biological Industries, Israel) and Differentiation medium (DM) was DMEM 2% Horse Serum (HS) with 1% Pen/Strep. For fusion assays, cells were trypsinized with Trypsin C (0.05%, Biological Industries) and subjected to two rounds of preplating on uncoated plates to reduce the number of fibroblasts. Cells were plated at a density of 8×10^3 per well in 10% Matrigel-coated 96-well plates in proliferation medium for 24 hours. The following day, proliferation media was replaced either with proliferation media or with DM containing DMSO (Ctrl) or 1 μM ERK1/2 inhibitor (ERKi; SCH772984, Cayman Chemicals), […] RXR antagonist (RXRi; HX-531, Cayman Chemicals), […] Ryanodine receptor antagonist (RYRi; Dantrolene, Cayman Chemicals), 5 μM CaMKII inhibitor (CaMKIIi; KN93, Cayman Chemicals), or with DM for controls.
Immunofluorescence staining. First passage primary myoblasts isolated from various strains (indicated in figure legends) were plated in 96-well plates or chamber slides and treated as previously described. The cells were fixed with ice cold 4% PFA in PBS for 10 minutes, permeabilized with 0.5% Triton X-100 in PBS for 6 minutes, and blocked in PBS with 0.025% tween, 10% normal horse serum and 10% normal goat serum for 1 hour at room temperature. Primary antibody incubation was done in blocking buffer overnight at 4 degrees, with the following antibodies: Myosin Heavy Chain (MyHC, MF20, DSHB hybridoma supernatant 1:10, or MY-32 ABCAM ab51263 1:400), Myogenin (MYOG sc-13137 SCBT 1:200), pHistone 3 (PH3, ab47297 ABCAM 1:1000), Ki-67 (Cell Marque #275R), RYR (ab2868 ABCAM 1:100), and pCaMKII (SIGMA SAB4504356 1:100). Cells were washed 3 times in PBS with 0.025% tween and then incubated with appropriate secondary antibodies in PBS 1 hour. Where indicated, nuclei were either labeled with DAPI (SIGMA D9542, 5 ug/ml) or Hoechst 33342 (Thermo scientific #62249, 1:2000). Fixed cells at 24 hours post treatment with indicated inhibitors were imaged using the Nikon Eclipse Ti2 microscope (further described in microscopy section). All analysis was performed on at least 1000 nuclei. […]
Quantification of fusion index. Following immunostaining and imaging, a fusion index was quantified by manually identifying nuclei found in a MyHC positive cell with at least 2 nuclei. Then the values were expressed as a percentage of the total nuclei per field. Briefly, in Figures where fusion index is stratified into subgroups of fiber size, the nuclei number in MyHC positive cell was manually quantified in a given field and stratified into groups of mononucleated, bi-nucleated myotubes, myotubes with 3-10 nuclei and myotubes with greater than 10 nuclei. […] Fields were analyzed hourly, and nuclei per cell was quantified and stratified into mononucleated, bi-nucleated, tri-nucleated and cells with ≥4 nuclei.

[5] = test system: primary mouse myoblasts; assay: MYOG positive nuclei in primary mouse myoblasts (immunofluorescence); type: cell-based; settings: co-treatment with 1 μM ERKi, 24 hrs; HX531 20 uM, Dantrolene 50 uM, BAPTA-AM 10 uM, KN93 5 uM
Procedure: as §1
Immunofluorescence staining. First passage primary myoblasts isolated from various strains (indicated in figure legends) were plated in 96-well plates or chamber slides and treated as previously described. The cells were fixed with ice cold 4% PFA in PBS for 10 minutes, permeabilized with 0.5% Triton X-100 in PBS for 6 minutes, and blocked in PBS with 0.025% tween, 10% normal horse serum and 10% normal goat serum for 1 hour at room temperature. Primary antibody incubation was done in blocking buffer overnight at 4 degrees, with the following antibodies: Myosin Heavy Chain (MyHC, MF20, DSHB hybridoma supernatant 1:10, or MY-32 ABCAM ab51263 1:400), Myogenin (MYOG sc-13137 SCBT 1:200), pHistone 3 (PH3, ab47297 ABCAM 1:1000), Ki-67 (Cell Marque #275R), RYR (ab2868 ABCAM 1:100), and pCaMKII (SIGMA SAB4504356 1:100). Cells were washed 3 times in PBS with 0.025% tween and then incubated with appropriate secondary antibodies in PBS 1 hour. Where indicated, nuclei were either labeled with DAPI (SIGMA D9542, 5 ug/ml) or Hoechst 33342 (Thermo scientific #62249, 1:2000). Fixed cells at 24 hours post treatment with indicated inhibitors were imaged using the Nikon Eclipse Ti2 microscope (further described in microscopy section). All analysis was performed on at least 1000 nuclei. For fixed cells following the timecourse with ERKi or DM (FIG. 1B), images were captured with an inverted Olympus IX83 microscope (further details in microscopy section). All imaging analysis were performed on at least 1000 cells.

[6] = test system: primary mouse myoblasts; assay: qRT-PCR gene expression in primary mouse myoblasts; type: cell-based; settings: co-treatment with ERKi and RXRi, 24 hours post treatment
Procedure: Quantitative real-time PCR (qRT-PCR). Total RNA was isolated using Tri-Reagent (SIGMA) according to the manufacturer's instructions. cDNA was synthesized with the High Capacity cDNA Reverse Transcription Kit (Applied Biosystems according to the manufacturer's instructions. qRT-PCR was performed with SYBR green PCR Master Mix (Applied Biosystems) using the StepOnePlus Real-time PCR system (Applied Biosystems). Values for specific genes were normalize to either Gapdh or Hprt housekeeping control as indicated in Figure legend. Expression was calculated using the ddCT method.
First passage primary mouse derived myoblast were seeded in proliferation media, in equal number in 12-well tissue culture plates that were precoated with 10% Matrigel solution. Following 24 hours to allow for complete attachment, culture media was washed and replaced either with fresh proliferation media (PM), PM supplemented with 1 uM SCH 772984 (ERKi) or differentiation media (DM). After 24 hrs, cells were lysed and RNA was collected. Gene expression analysis was carried out using SYBR green qRT-PCR analysis.

[7] = cell culture media ingredient used during meat production

| Compound | Risk Assessment Category [1, 7] | Safe Reference Level for Human Dietary Intake (kind of level not given) [2] | Maximum Estimated Exposure per 100 g serving [3] [mg] | further results |
| --- | --- | --- | --- | --- |
| [Cl-].[Cl-].[Mg+2] [MAGNESIUM CHLORIDE (ANHY)] | 1 | 65 to 350 mg | 170 | – |
| COPPER SULFATE-PENTAHYDRATE | – | 1 to 10 mg | 3 | – |
| [Ca+2].[Cl-].[Cl-] [CALCIUM CHLORIDE (ANHY)] | 1 | 1 to 3 g/day | 760 | – |
| CALCIUM D-PANTOTHENATE | – | – | 100 | Safe Reference Level for Human Dietary Intake (UL) given as symbol [2]: UL = NS |
| Cc1c(C)c2c(c(C)c1O)CC[C@@](C)(CCC[C@H](C)CCC[C@H](C)CCCC(C)C)O2 [D-ALPHA-TOCOPHEROL] | 1 | – | 1.6 | Safe Reference Level for Human Dietary Intake: UL (Tolerable Upper Limit) [2]: UL = 1000 mg/d |
| O=S(=O)([O-])[O-].[Mg+2] [MAGNESIUM SULFATE (ANHY)] | 1 | – | 493 | Safe Reference Level for Human Dietary Intake: UL (Tolerable Upper Limit) ([2]; niacinamide and magnesium sulfate: supplements): UL = 65 to 350 mg |
| [Cl-].[K+] [POTASSIUM CHLORIDE] | 1 | – | 4000 | Safe Reference Level for Human Dietary Intake (UL) given as symbol [2]: UL = NS |
| CCCCC/C=C\C/C=C\CCCCCCCC(=O)O [LINOLEIC ACID] | – | – | 1 | Risk Assessment Category [1]: 2; Safe Reference Level for Human Dietary Intake: AI (Adequate Intake) [2]: AI = 7 to 12 g/d |
| O.O.O.O.O.O.O.O=S(=O)([O-])[O-].[Fe+2] [FERROUS SULFATE-7H2O] | – | – | 2.5 | Risk Assessment Category [1]: 2; Safe Reference Level for Human Dietary Intake: Iron UL ([2]; as iron): Iron UL = 40 to 45 mg |
| CN1c2ccc([N+](=O)[O-])cc2N=C(c2ccc(C(=O)O)cc2)c2cc3c(cc21)C(C)(C)CCC3(C)C [HX531] | – | – | – | Suppression of ERKi-induced fusion [4]: 47%; Differentiation (percent of MYOG positive nuclei) on co-treatment with ERKi [5]: without affecting differentiation; Ryr1 and Ryr3 mRNA expression [6]: downregulation |
